Test results published in patent publication US20160244437A1, “SUBSTITUTED PHENYLALANINE DERIVATIVES” (BAYER PHARMA AKTIENGESELLSCHAFT, priority 2013, published 2016).
Counter-ions that a name gives are not always drawn.

Assays:
human and animal plasma = assay: Determination of anticoagulatory activity: activated partial thromboplastin time (aPTT) in plasma; conditions: concentration of test substance which brings about a 1.5-fold extension of the aPTT; plasma in vitro, C.K. Prest kit
Method: The anticoagulatory activity of the test substances is determined in vitro in human and animal plasma (for example mouse, rat, rabbit, pig and dog plasma). To this end, blood is drawn off in a mixing ratio of sodium citrate/blood of 1:9 using a 0.11 molar sodium citrate solution as receiver. Immediately after the blood has been drawn off, it is mixed thoroughly and centrifuged at about 4000 g for 15 minutes. The supernatant is pipetted off.
The activated partial thromboplastin time (aPTT) is determined in the presence of varying concentrations of test substance or the corresponding solvent using a commercial test kit (C.K. Prest from Diagnostica Stago). The test compounds are incubated with the plasma and the PTT reagent (cephalin, kaolin) at 37° C. for 3 minutes. Coagulation is then started by addition of a 25 mM aqueous calcium chloride solution, and the time when coagulation occurs is determined. The concentration of test substance which brings about a 1.5-fold extension of the aPTT is determined.

human factor XIa = biological target: T1, human factor XIa (Homo sapiens, UniProt P03951); assay: Measurement of FXIa inhibition (fluorogenic peptide substrate Boc-Glu(OBzl)-Ala-Arg-AMC); type: biochemical; conditions: factor XIa from Kordia 0.45 nM, 15 min pre-incubation, 30 min at 22° C., fluorescence
T1 construct: purchased Kordia
T1 sequence (P03951 388-625 limits assumed): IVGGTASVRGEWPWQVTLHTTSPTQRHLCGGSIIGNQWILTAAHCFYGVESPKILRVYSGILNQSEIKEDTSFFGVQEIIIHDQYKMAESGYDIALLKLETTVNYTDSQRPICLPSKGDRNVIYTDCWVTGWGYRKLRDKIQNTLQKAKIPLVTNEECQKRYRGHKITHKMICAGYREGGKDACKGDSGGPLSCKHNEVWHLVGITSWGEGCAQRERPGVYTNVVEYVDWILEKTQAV
T1 sequence (P03951 19-387 partner limits assumed): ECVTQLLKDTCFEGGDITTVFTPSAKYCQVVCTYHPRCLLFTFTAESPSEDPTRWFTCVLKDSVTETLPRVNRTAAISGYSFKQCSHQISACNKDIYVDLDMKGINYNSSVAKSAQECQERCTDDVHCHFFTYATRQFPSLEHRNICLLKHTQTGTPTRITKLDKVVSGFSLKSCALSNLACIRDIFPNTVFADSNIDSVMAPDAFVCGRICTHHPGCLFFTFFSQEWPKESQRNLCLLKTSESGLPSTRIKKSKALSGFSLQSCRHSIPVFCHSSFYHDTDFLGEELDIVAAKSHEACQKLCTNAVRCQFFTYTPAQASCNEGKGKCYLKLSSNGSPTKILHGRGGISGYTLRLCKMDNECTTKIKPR
Method: The factor XIa inhibition of the substances according to the invention is determined using a biochemical test system which utilizes the reaction of a peptidic factor XIa substrate to determine the enzymatic activity of human factor XIa. Here, factor XIa cleaves from the peptic factor XIa substrate the C-terminal aminomethylcoumarin (AMC), the fluorescence of which is measured. The determinations are carried out in microtitre plates.
Test substances are dissolved in dimethyl sulphoxide and serially diluted in dimethyl sulphoxide (3000 μM to 0.0078 μM; resulting final concentrations in the test: 50 μM to 0.00013 μM). In each case 1 μl of the diluted substance solutions is placed into the wells of white microtitre plates from Greiner (384 wells). Subsequently, the following are added successively: 20 μl of assay buffer (50 mmol/l Tris buffer pH 7.4; 100 mmol/l sodium chloride; 5 mmol/l calcium chloride; 0.1% bovine serum albumin) and 20 μl of factor XIa from Kordia (0.45 nM in assay buffer). After 15 min of incubation, the enzyme reaction is started by addition of 20 μl of the factor XIa substrate Boc-Glu(OBzl)-Ala-Arg-AMC dissolved in assay buffer (10 μM in assay buffer) from Bachem, the mixture is incubated at room temperature (22° C.) for 30 min and fluorescence is then measured (excitation: 360 nm, emission: 460 nm). The measured emissions of the test batches with test substance are compared to those of control batches without test substance (only dimethyl sulphoxide instead of test substance in dimethyl sulphoxide), and IC50 values are calculated from the concentration/activity relationships.

`CC(C)N1CCC(NC(=O)c2cccc(-c3cccc(C[C@H](NC(=O)[C@H]4CC[C@H](CN)CC4)C(=O)Nc4ccc(-c5nnc(Cl)[nH]5)cc4)c3)c2)CC1` [Example 30, 3′-[(2S)-2-({[trans-4-(Aminomethyl)cyclohexyl]carbonyl}amino)-3-{[4-(3-chloro-4H-1,2,4-triazol-5-yl)phenyl]amino}-3-oxopropyl]-N-[1-(propan-2-yl)piperidin-4-yl]biphenyl-3-carboxamide hydrochloride] gave an aPTT (human and animal plasma) of 0.34 µmol/L and an IC50 (human factor XIa) of 5.8 nM.

`CCN(CC)CCNC(=O)c1ccc(-c2cccc(C[C@H](NC(=O)[C@H]3CC[C@H](CN)CC3)C(=O)Nc3ccc(-c4nnn[nH]4)cc3)c2)cc1` [Example 42, 3′-[(2S)-2-({[trans-4-(Aminomethyl)cyclohexyl]carbonyl}amino)-3-oxo-3-{[4-(1H-tetrazol-5-yl)phenyl]amino}propyl]-N-[2-(diethylamino)ethyl]biphenyl-4-carboxamide hydrochloride] gave an aPTT (human and animal plasma) of 0.35 µmol/L and an IC50 (human factor XIa) of 11 nM.

Molecule `CCN(CC)CCNC(=O)c1cccc(-c2cccc(C[C@H](NC(=O)[C@H]3CC[C@H](CN)CC3)C(=O)Nc3ccc(-c4nnn[nH]4)cc3)c2)c1` [Example 34, 3′-[(2S)-2-({[trans-4-(Aminomethyl)cyclohexyl]carbonyl}amino)-3-oxo-3-{[4-(1H-tetrazol-5-yl)phenyl]amino}propyl]-N-[2-(diethylamino)ethyl]biphenyl-3-carboxamide hydrochloride] has an aPTT (human and animal plasma) of 0.26 µmol/L and an IC50 (human factor XIa) of 8.6 nM.

For `NC[C@H]1CC[C@H](C(=O)N[C@@H](Cc2cccc(-c3ccc(C(=O)NCCN4CCCCC4)cc3)c2)C(=O)Nc2ccc(-c3nnn[nH]3)cc2)CC1` [Example 37, 3′-[(2S)-2-({[trans-4-(Aminomethyl)cyclohexyl]carbonyl}amino)-3-oxo-3-{[4-(1H-tetrazol-5-yl)phenyl]amino}propyl]-N-[2-(piperidin-1-yl)ethyl]biphenyl-4-carboxamide hydrochloride], the aPTT (human and animal plasma) was 0.19 µmol/L and the IC50 (human factor XIa) was 5.6 nM.

In the case of `Cc1cc(C(=O)NC2C3CNCC32)ccc1-c1cccc(C[C@H](NC(=O)C2CCC(CN)CC2)C(=O)Nc2ccc(-c3nnn[nH]3)cc2)c1` (stereo partly drawn) [Example 33, 3′-[(2S)-2-({[trans-4-(Aminomethyl)cyclohexyl]carbonyl}amino)-3-oxo-3-{[4-(1H-tetrazol-5-yl)phenyl]amino}propyl]-N-(3-azabicyclo[3.1.0]hex-6-yl)-2-methylbiphenyl-4-carboxamide hydrochloride], the aPTT (human and animal plasma) is reported as 0.08 µmol/L and the IC50 (human factor XIa) is reported as 7.6 nM.

Molecule `COc1ccc(C[C@H](NC(=O)[C@H]2CC[C@H](CN)CC2)C(=O)Nc2ccc(-c3nn[nH]n3)cc2)cc1-c1ccc(C(=O)NCCN)cc1C` [Example 58, N-(2-Aminoethyl)-5′-[(2S)-2-({[trans-4-(aminomethyl)cyclohexyl]carbonyl}amino)-3-oxo-3-{[4-(2H-tetrazol-5-yl)phenyl]amino}propyl]-2′-methoxy-2-methylbiphenyl-4-carboxamide hydrochloride] has an aPTT (human and animal plasma) of 0.3 µmol/L and an IC50 (human factor XIa) of 17 nM.

`NC[C@H]1CC[C@H](C(=O)N[C@@H](Cc2cccc(-c3cnc(N4CCOCC4)nc3)c2)C(=O)Nc2ccc(-c3n[nH]c(C(F)(F)C(F)(F)C(=O)O)n3)cc2)CC1` [Example 96, 3-(3-{4-[(N-{[trans-4-(Aminomethyl)cyclohexyl]carbonyl}-3-[2-(morpholin-4-yl)pyrimidin-5-yl]-L-phenylalanyl)amino]phenyl}-1H-1,2,4-triazol-5-yl)-2,2,3,3-tetrafluoropropanoic acid hydrochloride] was tested, and the aPTT (human and animal plasma) was 0.19 µmol/L and the IC50 (human factor XIa) was 3.3 nM.

In the case of `CN(C)c1ncc(-c2cccc(C[C@H](NC(=O)[C@H]3CC[C@H](CN)CC3)C(=O)Nc3ccc(-c4nnn[nH]4)cc3)c2)cn1` [Example 70, N-alpha-{[trans-4-(Aminomethyl)cyclohexyl]carbonyl}-3-[2-(dimethylamino)pyrimidin-5-yl]-N-[4-(1H-tetrazol-5-yl)phenyl]-L-phenylalaninamide hydrochloride], the aPTT (human and animal plasma) is reported as 0.36 µmol/L and the IC50 (human factor XIa) is reported as 2.9 nM.

For `Cc1ccc(C(=O)NC2CCNCC2)cc1-c1cccc(C[C@H](NC(=O)[C@H]2CC[C@H](CN)CC2)C(=O)Nc2ccc(-c3nnn[nH]3)cc2)c1` [Example 14, 3′-[(2S)-2-({[trans-4-(Aminomethyl)cyclohexyl]carbonyl}amino)-3-oxo-3-{[4-(1H-tetrazol-5-yl)phenyl]amino}propyl]-6-methyl-N-(piperidin-4-yl)biphenyl-3-carboxamide hydrochloride], the aPTT (human and animal plasma) was 0.15 µmol/L and the IC50 (human factor XIa) was 4.8 nM.

`Cc1cnccc1-c1cccc(C[C@H](NC(=O)[C@H]2CC[C@H](CN)CC2)C(=O)Nc2ccc(-c3n[nH]c(=O)[nH]3)cc2)c1` [Example 89, N-alpha-{[trans-4-(Aminomethyl)cyclohexyl]carbonyl}-3-(3-methylpyridin-4-yl)-N-[4-(5-oxo-4,5-dihydro-1H-1,2,4-triazol-3-yl)phenyl]-L-phenylalaninamide hydrochloride] gave an aPTT (human and animal plasma) of 0.46 µmol/L.

With `CN1CCN(c2cc(-c3cccc(C[C@H](NC(=O)[C@H]4CC[C@H](CN)CC4)C(=O)Nc4ccc(-c5nnn[nH]5)cc4)c3)ccn2)CC1` [Example 65, N-alpha-{[trans-4-(Aminomethyl)cyclohexyl]carbonyl}-3-[2-(4-methylpiperazin-1-yl)pyridin-4-yl]-N-[4-(1H-tetrazol-5-yl)phenyl]-L-phenylalaninamide hydrochloride] the IC50 (human factor XIa) was 12 nM.

Molecule `Cc1cnccc1-c1cccc(C[C@H](NC(=O)[C@H]2CC[C@H](CN)CC2)C(=O)Nc2ccc3[nH]c(=O)[nH]c3c2)c1` [Example 75, N-alpha-{[trans-4-(Aminomethyl)cyclohexyl]carbonyl}-3-(3-methylpyridin-4-yl)-N-(2-oxo-2,3-dihydro-1H-benzimidazol-5-yl)-L-phenylalaninamide hydrochloride] has an IC50 (human factor XIa) of 35 nM.

For `CN1CCN(c2ccc(-c3cccc(C[C@H](NC(=O)[C@H]4CC[C@H](CN)CC4)C(=O)Nc4ccc(-c5nnn[nH]5)cc4)c3)cn2)CC1` [Example 77, N-alpha-{[trans-4-(Aminomethyl)cyclohexyl]carbonyl}-3-[6-(4-methylpiperazin-1-yl)pyridin-3-yl]-N-[4-(1H-tetrazol-5-yl)phenyl]-L-phenylalaninamide hydrochloride], the IC50 (human factor XIa) was 7.3 nM.

`NC[C@H]1CC[C@H](C(=O)N[C@@H](Cc2cccc(-c3cncc(N)c3)c2)C(=O)Nc2ccc(-c3nnn[nH]3)cc2)CC1` [Example 72, N-alpha-{[trans-4-(Aminomethyl)cyclohexyl]carbonyl}-3-(5-aminopyridin-3-yl)-N-[4-(1H-tetrazol-5-yl)phenyl]-L-phenylalaninamide hydrochloride] was tested, and the IC50 (human factor XIa) was 5.3 nM.

`CCN(CC)CCNC(=O)c1ccc(-c2cccc(C[C@H](NC(=O)[C@H]3CC[C@H](CN)CC3)C(=O)Nc3ccc4cn[nH]c4c3)c2)cc1` [Example 53, 3′-[(2S)-2-({[trans-4-(Aminomethyl)cyclohexyl]carbonyl}amino)-3-(1H-indazol-6-ylamino)-3-oxopropyl]-N-[2-(diethylamino)ethyl]biphenyl-4-carboxamide hydrochloride] showed an IC50 (human factor XIa) of 17 nM.

With `Cc1cc(C(=O)NCCOCCOCCO)ccc1-c1cccc(C[C@H](NC(=O)[C@H]2CC[C@H](CN)CC2)C(=O)Nc2ccc(-c3nnn[nH]3)cc2)c1` [Example 25, 3′-[(2S)-2-({[trans-4-(Aminomethyl)cyclohexyl]carbonyl}amino)-3-oxo-3-{[4-(1H-tetrazol-5-yl)phenyl]amino}propyl]-N-{2-[2-(2-hydroxyethoxy)ethoxy]ethyl}-2-methylbiphenyl-4-carboxamide hydrochloride] the IC50 (human factor XIa) was 4.4 nM.

Molecule `CN1CCN(c2cc(-c3cccc(C[C@H](NC(=O)[C@H]4CC[C@H](CN)CC4)C(=O)Nc4ccc5[nH]c(=O)[nH]c5c4)c3)ccn2)CC1` [Example 76, N-alpha-{[trans-4-(Aminomethyl)cyclohexyl]carbonyl}-3-[2-(4-methylpiperazin-1-yl)pyridin-4-yl]-N-(2-oxo-2,3-dihydro-1H-benzimidazol-5-yl)-L-phenylalaninamide hydrochloride] has an IC50 (human factor XIa) of 59 nM.

In the case of `NC[C@H]1CC[C@H](C(=O)N[C@@H](Cc2cccc(-c3ccnc(N4CCOCC4)c3)c2)C(=O)Nc2ccc(-c3nn[nH]n3)cc2)CC1` [Example 85, N-alpha-{[trans-4-(Aminomethyl)cyclohexyl]carbonyl}-3-[2-(morpholin-4-yl)pyridin-4-yl]-N-[4-(2H-tetrazol-5-yl)phenyl]-L-phenylalaninamide hydrochloride], the IC50 (human factor XIa) is reported as 2.4 nM.
